# US20040126369A1, “Delivery of peroxide-generating enzymes to the vaginal tract” (priority 2002, published 2004)
# Columns and labels:
# Assay type in all cases: biochemical
# [1] = Hydrogen peroxide generation by enzymes on substrates; settings: for μg of H2O2 produced/ml: one unit enzyme, pH 6.3, 37° C., 12 h
# Description: Seven enzymes, including glucose oxidase, glycerol-3-phosphate oxidase, xanthine oxidase, cholesterol oxidase, galactose oxidase, alcohol oxidase and pyruvate oxidase, were tested for hydrogen peroxide generation on five substrates, including tampon material (e.g., cellulosic materials, including, but not limited to, cotton and rayon fibers), polydextran, carboxymethylcellulose, chitosan, and poly (vinyl alcohol).
# One unit of each enzyme was combined with 0.05 ml of a saturated solution (in distilled, deionized water) of each substrate in a test tube and diluted to 0.5 ml with buffer (0.5 M Tris buffer, pH adjusted to 6.3). In the case of insoluble substrates, a piece (approximately 0.25 g) of the substrate was placed in the test tube. The tubes were placed in an oscillating incubator at 37° C. After 12 h, the tubes were removed and the solution was assayed for H2O2 level by an established method (Graf, E. and Penniston, J. T., “Method for Determination of Hydrogen Peroxide, With Its Application Illustrated by Glucose Assay,” Clinical Chemistry, 26, 658-660 (1980)). The results are depicted in Table 2 in μg H2O2 per ml. (For production of hydrogen peroxide over time, see FIG. 1.)
# [2] = H2O2 production by alcohol oxidase on modified pva/polycap polymer versus unmodified poly (vinyl alcohol); settings: direct comparison (data not shown)
# [3] = Self-limiting features of peroxide generation, alcohol oxidase-carboxymethylcellulose; settings: carboxymethylcellulose substrate, 37° C.
# Description: FIG. 4 is a graphical representation of the effect of pH on hydrogen peroxide production. Depicted is hydrogen peroxide production resulting from alcohol oxidase activity with carboxymethylcellulose as a function of pH (with no initial peroxide added, after agitation for 8 hours at 37° C. in normal atmosphere).
# FIG. 5 is a graphical representation of the effect of initial hydrogen peroxide (H2O2) on H2O2 production. Depicted is hydrogen peroxide production resulting from alcohol oxidase activity with carboxymethylcellulose as a function of initial hydrogen peroxide added (at pH 6.3, after agitation for 8 hours at 37° C. in normal atmosphere).
# One of the enzyme-substrate combinations, alcohol oxidase-carboxymethylcellulose, was further studied. One unit of enzyme was combined with 0.05 ml of 2.5% carboxymethyl cellulose in a test tube and diluted to 0.5 ml with buffer of appropriate pH. The tubes were placed in an oscillating incubator at 37° C. After 8 hours, the tubes were removed and the solution was assayed for H2O2 level.
# [4] = substrate Tampon Material (cotton)
Substance,level of H2O2 production compared with the other enzymes ([1]; across the five substrates of Table 2),μg of H2O2 produced/ml ([1]; substrate CM Cellulose) [μg H2O2 per ml],μg of H2O2 produced/ml ([1]; substrate Chitosan) [μg H2O2 per ml],μg of H2O2 produced/ml ([1]; substrate Poly(vinyl alcohol)) [μg H2O2 per ml],μg of H2O2 produced/ml ([1]; substrate Polydextran) [μg H2O2 per ml],"μg of H2O2 produced/ml [1, 4] [μg H2O2 per ml]",more H2O2 produced on modified pva/polycap polymer than on unmodified poly (vinyl alcohol) [2] [%],"enzyme activity as a function of pH ([3]; 8 hours, FIG. 4)","hydrogen peroxide production at pH 6.3 ([3]; pH 6.3, 8 hours)","effect of initial hydrogen peroxide on enzyme activity ([3]; pH 6.3, 8 hours, FIG. 5)"
alcohol oxidase,highest level of H2O2 production on most of the substrates,103.96,9.38,53.20,92.89,97.84,22,decreased with decreasing pH,high levels of hydrogen peroxide,deactivated in the presence of high concentrations of hydrogen peroxide
cholesterol oxidase,–,4.01,14.09,5.13,3.89,4.92,–,–,–,–
galactose oxidase,–,4.43,8.06,4.34,3.89,6.45,–,–,–,–
glucose oxidase,–,3.31,10.66,4.47,54.69,4.43,–,–,–,–
glycerol-3-phosphate oxidase,–,3.97,9.01,3.85,4.01,4.84,–,–,–,–
pyruvate oxidase,–,9.84,11.94,3.85,9.75,6.66,–,–,–,–
xanthine oxidase,–,6.08,10.00,6.00,5.96,10.46,–,–,–,–
